Drawing on ChEMBL document CHEMBL1157668, “Synthesis and structure-activity relationships of N-benzyl-N-(X-2-hydroxybenzyl)-N'-phenylureas and thioureas as antitumor agents” (Bioorg Med Chem, 2010), this text covers IC50 for 36 compounds.

The test system of one test is MCF7. Description: cells. The conditions noted are these: Homo sapiens, MCF7, 48 h.
Test [1] addresses Epidermal growth factor receptor (Homo sapiens, UniProt P00533). Description: biochemical.
Description: Inhibition of cloned EGFR autophosphorylation expressed in baculovirus-infected Sf9 cells by solid-phase ELISA
Test [2] addresses Receptor tyrosine-protein kinase erbB-2 (Homo sapiens, UniProt P04626). Description: biochemical.
Description: Inhibition of human cloned HER2 autophosphorylation expressed in baculovirus-infected Sf9 cells by solid-phase ELISA

Epidermal growth factor receptor, sequence (P00533 whole entry): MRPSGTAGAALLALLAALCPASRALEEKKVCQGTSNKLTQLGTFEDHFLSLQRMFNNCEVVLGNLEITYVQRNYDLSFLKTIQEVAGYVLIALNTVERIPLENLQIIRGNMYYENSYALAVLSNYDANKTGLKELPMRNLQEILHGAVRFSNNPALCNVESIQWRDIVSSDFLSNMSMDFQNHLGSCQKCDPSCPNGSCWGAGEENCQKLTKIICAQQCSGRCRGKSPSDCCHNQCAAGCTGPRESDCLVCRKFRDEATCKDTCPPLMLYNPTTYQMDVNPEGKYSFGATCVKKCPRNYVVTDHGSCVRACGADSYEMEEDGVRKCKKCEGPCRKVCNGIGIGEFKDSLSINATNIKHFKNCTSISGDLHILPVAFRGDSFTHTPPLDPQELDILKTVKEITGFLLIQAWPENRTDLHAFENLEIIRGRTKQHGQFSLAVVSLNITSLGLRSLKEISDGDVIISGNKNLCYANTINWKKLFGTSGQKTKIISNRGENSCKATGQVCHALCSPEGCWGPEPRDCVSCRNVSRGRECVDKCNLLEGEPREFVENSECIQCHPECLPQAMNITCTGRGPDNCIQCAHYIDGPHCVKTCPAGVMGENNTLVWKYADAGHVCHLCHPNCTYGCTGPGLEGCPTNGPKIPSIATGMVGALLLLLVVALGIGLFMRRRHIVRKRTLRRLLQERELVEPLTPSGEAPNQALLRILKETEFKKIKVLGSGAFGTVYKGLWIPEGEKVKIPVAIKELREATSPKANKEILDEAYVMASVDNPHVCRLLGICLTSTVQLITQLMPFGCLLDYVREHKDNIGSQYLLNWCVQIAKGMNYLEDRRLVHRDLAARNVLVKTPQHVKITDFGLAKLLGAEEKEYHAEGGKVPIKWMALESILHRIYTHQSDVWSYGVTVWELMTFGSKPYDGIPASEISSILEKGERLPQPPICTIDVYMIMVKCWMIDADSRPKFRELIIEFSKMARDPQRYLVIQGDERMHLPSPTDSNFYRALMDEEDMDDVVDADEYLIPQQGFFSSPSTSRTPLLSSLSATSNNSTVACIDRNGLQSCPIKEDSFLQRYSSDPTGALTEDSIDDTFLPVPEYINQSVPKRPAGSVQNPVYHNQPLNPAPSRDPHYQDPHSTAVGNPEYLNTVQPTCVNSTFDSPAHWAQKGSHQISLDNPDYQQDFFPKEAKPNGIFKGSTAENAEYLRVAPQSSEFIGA
Receptor tyrosine-protein kinase erbB-2, sequence (P04626 whole entry): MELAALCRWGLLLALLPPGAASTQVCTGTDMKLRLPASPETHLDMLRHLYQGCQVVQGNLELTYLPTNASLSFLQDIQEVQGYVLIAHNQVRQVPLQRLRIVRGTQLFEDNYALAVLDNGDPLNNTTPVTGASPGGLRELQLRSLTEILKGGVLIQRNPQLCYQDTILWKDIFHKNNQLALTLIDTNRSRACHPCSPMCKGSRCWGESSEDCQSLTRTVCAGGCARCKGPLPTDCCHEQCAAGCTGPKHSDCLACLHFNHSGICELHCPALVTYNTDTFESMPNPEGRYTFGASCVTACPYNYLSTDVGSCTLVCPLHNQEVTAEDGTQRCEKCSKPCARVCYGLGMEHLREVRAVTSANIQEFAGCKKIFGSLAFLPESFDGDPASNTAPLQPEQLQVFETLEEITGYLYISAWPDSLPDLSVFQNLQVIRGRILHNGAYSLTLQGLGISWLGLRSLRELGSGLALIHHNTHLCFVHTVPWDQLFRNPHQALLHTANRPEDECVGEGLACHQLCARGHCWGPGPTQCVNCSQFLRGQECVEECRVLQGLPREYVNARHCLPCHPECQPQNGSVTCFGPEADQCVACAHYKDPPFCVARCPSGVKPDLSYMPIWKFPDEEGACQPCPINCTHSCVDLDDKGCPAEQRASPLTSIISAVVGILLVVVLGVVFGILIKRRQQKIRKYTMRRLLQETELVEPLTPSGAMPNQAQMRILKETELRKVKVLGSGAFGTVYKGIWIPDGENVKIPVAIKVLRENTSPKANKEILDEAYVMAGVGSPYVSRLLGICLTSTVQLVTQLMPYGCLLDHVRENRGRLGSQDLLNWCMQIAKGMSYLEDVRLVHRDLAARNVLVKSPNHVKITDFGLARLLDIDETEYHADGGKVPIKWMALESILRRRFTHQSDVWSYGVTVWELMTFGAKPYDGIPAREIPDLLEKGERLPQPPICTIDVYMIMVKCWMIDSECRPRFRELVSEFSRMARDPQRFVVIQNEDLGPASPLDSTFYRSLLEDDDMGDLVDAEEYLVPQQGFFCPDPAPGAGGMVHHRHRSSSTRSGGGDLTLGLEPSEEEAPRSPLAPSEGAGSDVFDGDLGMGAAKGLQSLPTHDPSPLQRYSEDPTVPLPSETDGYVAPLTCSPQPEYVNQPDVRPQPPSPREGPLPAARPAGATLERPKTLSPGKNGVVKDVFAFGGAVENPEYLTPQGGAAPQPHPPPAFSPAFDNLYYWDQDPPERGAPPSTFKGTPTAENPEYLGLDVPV

A word on the IC50: it is the concentration at which inhibition is half-maximal. A low value points to greater potency in that assay. Take `Cc1cc(C)c(O)c(CN(Cc2ccc(O)cc2)C(=O)Nc2ccccc2)c1`: the IC50 worked out at 8.5 µM in the test on MCF7, 9.26 µM in test [1] and 16.1 µM in test [2].

As to `Cc1cc(C)c(O)c(CN(Cc2ccccc2)C(=S)Nc2ccccc2)c1`, the IC50 in the test with MCF7 is 34.1 µM; in test [1] it was more than 50 µM; in test [2], more than 50 µM.

For `CCCCN(Cc1cccc(Cl)c1O)C(=S)Nc1ccccc1`, the IC50 worked out at 7.4 µM with MCF7, 18.1 µM in test [1] and 32.5 µM in test [2].

On to `Oc1c(Cl)cccc1CN(Cc1ccc(F)cc1)C(=S)Nc1ccccc1`, for which the values for the half-inhibitory concentration (IC50) (with MCF7; in test [1]; in test [2]) were 0.52 µM, 0.67 µM and 1.41 µM, respectively.

Consider `Oc1c(Br)cccc1CN(Cc1ccc(F)cc1)C(=S)Nc1ccccc1`, for which the IC50 with MCF7 was determined as 0.73 µM; in test [1], 0.98 µM; in test [2], 1.87 µM.

Take `CCCCN(Cc1cc(Br)cc(Br)c1O)C(=S)Nc1ccccc1`: the figures for the IC50 (in the test on MCF7; in test [1]; in test [2]) were 16.7 µM, 31.9 µM and more than 50 µM, respectively.

Regarding `Cc1cccc(CN(Cc2ccc(F)cc2)C(=S)Nc2ccccc2)c1O`, the IC50 was 3.8 µM in the test on MCF7, 8.54 µM in test [1] and 15.7 µM in test [2].

Turning to `O=C(Nc1ccccc1)N(Cc1ccc(F)cc1)Cc1cc(Cl)cc(Cl)c1O`, the figures for the half-maximal inhibitory concentration (IC50) (in the test on MCF7; in test [1]; in test [2]) were 2.8 µM, 4.15 µM and 9.64 µM, respectively.

Turning to `Cc1cccc(CN(Cc2ccc(O)cc2)C(=O)Nc2ccccc2)c1O`, the IC50 with MCF7 is 5.3 µM; in test [1], 7.51 µM; in test [2], 18.4 µM.

Take `O=C(Nc1ccccc1)N(Cc1ccc(O)cc1)Cc1cc(Cl)cc(Cl)c1O`: the IC50 stood at 1.1 µM in the test on MCF7, 1.86 µM in test [1] and 2.21 µM in test [2].

Consider `O=C(Nc1ccccc1)N(Cc1ccc(O)cc1)Cc1cccc(Br)c1O`, for which the IC50 with MCF7 came to 0.25 µM; in test [1], 1.07 µM; in test [2], 2.66 µM.

Take `CCCCN(Cc1cc(Br)cc(Br)c1O)C(=O)Nc1ccccc1`: the values for the IC50 (in the test with MCF7; in test [1]; in test [2]) were 35 µM, more than 50 µM and more than 50 µM, respectively.

Turning to `CCCCN(Cc1cccc(Br)c1O)C(=O)Nc1ccccc1`, the 50% inhibitory concentration (IC50) in the test on MCF7 was 9.1 µM; in test [1], 36.9 µM; in test [2], more than 50 µM.

`CCCCN(Cc1cc(C)cc(C)c1O)C(=O)Nc1ccccc1`: the IC50 with MCF7 was 26 µM; in test [1], more than 50 µM; in test [2] it was more than 50 µM.

As to `Oc1ccc(CN(Cc2cc(Cl)cc(Cl)c2O)C(=S)Nc2ccccc2)cc1`, the results for the IC50 (with MCF7; in test [1]; in test [2]) were 0.22 µM, 0.56 µM and 1.23 µM, respectively.

For `CCCCN(Cc1cccc(C)c1O)C(=S)Nc1ccccc1`, the IC50 was 23.6 µM in the test with MCF7, 43.2 µM in test [1] and more than 50 µM in test [2].

In the case of `CCCCN(Cc1cc(Cl)cc(Cl)c1O)C(=S)Nc1ccccc1`, the figures for the IC50 (with MCF7; in test [1]; in test [2]) were 12.8 µM, 24.6 µM and 39.8 µM, respectively.

As for `CCCCN(Cc1cccc(Cl)c1O)C(=O)Nc1ccccc1`, the half-maximal inhibitory concentration (IC50) was 9.3 µM with MCF7, 32.1 µM in test [1] and more than 50 µM in test [2].

On to `CCCCN(Cc1cccc(C)c1O)C(=O)Nc1ccccc1`, for which the IC50 was 52 µM with MCF7, more than 50 µM in test [1] and more than 50 µM in test [2].

Take `CCCCN(Cc1cc(Cl)cc(Cl)c1O)C(=O)Nc1ccccc1`: the figures for the 50% inhibitory concentration (IC50) (in the test on MCF7; in test [1]; in test [2]) were 30 µM, more than 50 µM and more than 50 µM, respectively.

For the compound `Oc1ccc(CN(Cc2cc(Br)cc(Br)c2O)C(=S)Nc2ccccc2)cc1`, the results for the IC50 (with MCF7; in test [1]; in test [2]) were 0.36 µM, 0.87 µM and 2.24 µM, respectively.

As for `Oc1c(Cl)cc(Cl)cc1CN(Cc1ccc(F)cc1)C(=S)Nc1ccccc1`, the IC50 in the test with MCF7 turned out to be 1.1 µM; in test [1], 1.34 µM; in test [2], 6.49 µM.

Consider `Oc1c(Br)cc(Br)cc1CN(Cc1ccc(F)cc1)C(=S)Nc1ccccc1`, for which the IC50 with MCF7 stood at 1.7 µM; in test [1] it was 1.76 µM; in test [2], 6.73 µM.

For the compound `Cc1cc(C)c(O)c(CN(Cc2ccc(F)cc2)C(=O)Nc2ccccc2)c1`, the IC50 is 6.6 µM in the test with MCF7, 27.4 µM in test [1] and more than 50 µM in test [2].

Turning to `O=C(Nc1ccccc1)N(Cc1ccc(O)cc1)Cc1cccc(Cl)c1O`, the IC50 in the test on MCF7 was determined as 0.19 µM; in test [1] it was 0.96 µM; in test [2], 2.27 µM.

For the compound `Cc1cc(C)c(O)c(CN(Cc2ccc(F)cc2)C(=S)Nc2ccccc2)c1`, the IC50 with MCF7 is 10.5 µM; in test [1] it was 19.4 µM; in test [2] it was 37.8 µM.

As for `Cc1cc(C)c(O)c(CN(Cc2ccc(O)cc2)C(=S)Nc2ccccc2)c1`, the IC50 with MCF7 is 2.6 µM; in test [1], 5.83 µM; in test [2] it was 9.47 µM.

Take `O=C(Nc1ccccc1)N(Cc1ccc(F)cc1)Cc1cccc(Cl)c1O`: the results for the IC50 (in the test with MCF7; in test [1]; in test [2]) were 1.1 µM, 1.98 µM and 3.45 µM, respectively.

For `O=C(Nc1ccccc1)N(Cc1ccc(F)cc1)Cc1cccc(Br)c1O`, the IC50 in the test on MCF7 amounted to 1.4 µM; in test [1], 2.24 µM; in test [2], 5.17 µM.

`Oc1ccc(CN(Cc2cccc(Cl)c2O)C(=S)Nc2ccccc2)cc1`: the IC50 in the test with MCF7 amounted to 0.03 µM; in test [1], 0.08 µM; in test [2], 0.35 µM.

Turning to `Cc1cccc(CN(Cc2ccc(F)cc2)C(=O)Nc2ccccc2)c1O`, the IC50 worked out at 5.5 µM with MCF7, 21.7 µM in test [1] and 38.2 µM in test [2].

On to `O=C(Nc1ccccc1)N(Cc1ccc(O)cc1)Cc1cc(Br)cc(Br)c1O`, for which the IC50 in the test on MCF7 turned out to be 1.32 µM; in test [1], 1.12 µM; in test [2], 4.53 µM.

Regarding `O=C(Nc1ccccc1)N(Cc1ccc(F)cc1)Cc1cc(Br)cc(Br)c1O`, the results for the IC50 (in the test on MCF7; in test [1]; in test [2]) were 3.6 µM, 4.68 µM and 12.4 µM, respectively.

For `Oc1ccc(CN(Cc2cccc(Br)c2O)C(=S)Nc2ccccc2)cc1`, the IC50 with MCF7 worked out at 0.06 µM; in test [1], 0.12 µM; in test [2] it was 0.66 µM.

Regarding `Cc1cccc(CN(Cc2ccc(O)cc2)C(=S)Nc2ccccc2)c1O`, the IC50 was 1.2 µM in the test with MCF7 and 7.13 µM in test [2].

For the compound `CCCCN(Cc1cccc(Br)c1O)C(=S)Nc1ccccc1`, the figures for the IC50 (in the test on MCF7; in test [1]; in test [2]) were 14.2 µM, 22 µM and 39.5 µM, respectively.
